In the experiment the test system is Pseudomonas aeruginosa PAM1001. Kind of experiment: checkerboard assay (broth microdilution): levofloxacin MIC in presence of efflux pump inhibitor. Type of experiment: cell-based. In a few lines: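 Reduction of levofloxacin MIC by an efflux pump inhibitor measured against Pseudomonas aeruginosa PAM1001. Each microdilution well held a unique combination of levofloxacin and inhibitor (max 40 μg/mL) in MHB, inoculum 5×10^5 CFU/mL. Readout after 20 h, 35° C: OD650 plus visual inspection.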

10 compounds from patent US6399629B1, “Efflux pump inhibitors” (priority 1998, dated 2002) can be followed below.

Take “(2S,4R)-4-(2-Aminoacetamido)-N-[4-benzyl-2-benzimidazolyl)ethyl]-2-pyrrolidinecarboxamide [Compound M99]”: the “Levofloxacin MIC Against P. aerugiuosa PAM1001 in Presence of Efflux Pump Inhibitor (EPI), Minimum Inhibitory Concentration” value runs as follows: (EPI Conc. 0 μg/mL) 4 µg/mL; (EPI Conc. 0.625 μg/mL) 4 µg/mL; (EPI Conc. 1.25 μg/mL) 4 µg/mL; (EPI Conc. 2.5 μg/mL) 4 µg/mL; (EPI Conc. 5 μg/ mL) 4 µg/mL; (EPI Conc. 10 μg/mL) 4 µg/mL. For the same compound, the “Levofloxacin MIC Against P. aerugiuosa PAM1001 in Presence of Efflux Pump Inhibitor (EPI), Minimum Inhibitory Concentration” value by setting is: (EPI Conc. 20 μg/mL) 0.06 µg/mL; (EPI Conc. 40 μg/mL) 0.03 µg/mL.

For `NCC(=O)N[C@H]1CN[C@H](C(=O)NCc2nc3ccccc3n2CCc2ccccc2)C1` [Compound M80, (2S,4R)-4-(2-Aminoacetamido)-N-[(1-(2-phenyl)ethyl-2-benzimidazoly)methyl]-2-pyrrolidinexarboxamide], the “Levofloxacin MIC Against P. aerugiuosa PAM1001 in Presence of Efflux Pump Inhibitor (EPI), Minimum Inhibitory Concentration” value reads like this: (EPI Conc. 0 μg/mL) 4 µg/mL; (EPI Conc. 0.625 μg/mL) 4 µg/mL; (EPI Conc. 1.25 μg/mL) 4 µg/mL; (EPI Conc. 2.5 μg/mL) 4 µg/mL; (EPI Conc. 5 μg/ mL) 2 µg/mL; (EPI Conc. 10 μg/mL) 0.25 µg/mL. In addition, the “Levofloxacin MIC Against P. aerugiuosa PAM1001 in Presence of Efflux Pump Inhibitor (EPI), Minimum Inhibitory Concentration” value (EPI Conc. 20 μg/mL) came out at 0.06 µg/mL and the “Levofloxacin MIC Against P. aerugiuosa PAM1001 in Presence of Efflux Pump Inhibitor (EPI), Minimum Inhibitory Concentration” value (EPI Conc. 40 μg/mL) was determined as 0.06 µg/mL.

Consider `NC[C@@H]1CN[C@@H](C(=O)N[C@H](CCc2ccccc2)C(=O)Nc2ccc3ncccc3c2)C1` [Compound M29, (2R,4R)-4-(Aminomethyl)-N-[(1R)-3-pheyl-1-(6-quinolylcarbamoyl)propyl]-2-pyrrolidinecarboxamide], for which the “Levofloxacin MIC Against P. aerugiuosa PAM1001 in Presence of Efflux Pump Inhibitor (EPI), Minimum Inhibitory Concentration” value reads like this: (EPI Conc. 0 μg/mL) 4 µg/mL; (EPI Conc. 0.625 μg/mL) 4 µg/mL; (EPI Conc. 1.25 μg/mL) 4 µg/mL; (EPI Conc. 2.5 μg/mL) 2 µg/mL; (EPI Conc. 5 μg/ mL) 1 µg/mL; (EPI Conc. 10 μg/mL) 0.25 µg/mL. In addition, the “Levofloxacin MIC Against P. aerugiuosa PAM1001 in Presence of Efflux Pump Inhibitor (EPI), Minimum Inhibitory Concentration” value (EPI Conc. 20 μg/mL) was determined as 0.06 µg/mL and the “Levofloxacin MIC Against P. aerugiuosa PAM1001 in Presence of Efflux Pump Inhibitor (EPI), Minimum Inhibitory Concentration” value (EPI Conc. 40 μg/mL) came out at 0.03 µg/mL.

For the compound `NCCCC1CN[C@H](C(=O)N[C@H](CCc2ccccc2)C(=O)Nc2cnc3ccccc3c2)C1` (mixture of isomers) [Compound M93, (2S,4RS)-4-(3-Aminopropyl)-N-[(1R)-3-phenyl-1-(3-quiolylcarbamoyl)propyl]-2-pyrrolidinecarboxamide], the “Levofloxacin MIC Against P. aerugiuosa PAM1001 in Presence of Efflux Pump Inhibitor (EPI), Minimum Inhibitory Concentration” value was found to be 4 µg/mL (EPI Conc. 0 μg/mL); 4 µg/mL (EPI Conc. 0.625 μg/mL); 2 µg/mL (EPI Conc. 1.25 μg/mL); 0.25 µg/mL (EPI Conc. 2.5 μg/mL); 0.125 µg/mL (EPI Conc. 5 μg/ mL); 0.015 µg/mL (EPI Conc. 10 μg/mL). In addition, the “Levofloxacin MIC Against P. aerugiuosa PAM1001 in Presence of Efflux Pump Inhibitor (EPI), Minimum Inhibitory Concentration” value by setting is: (EPI Conc. 20 μg/mL) 0.015 µg/mL; (EPI Conc. 40 μg/mL) 0.008 µg/mL.

For “(2R,4S)-4-[(2R)-2-Aminopropionamido]-N-(2-phenylethyl)-N-(3-quinolylcarbamoyl)ethyl]-2-pyrrolidinecarboxamide [Compound M42]”, the “Levofloxacin MIC Against P. aerugiuosa PAM1001 in Presence of Efflux Pump Inhibitor (EPI), Minimum Inhibitory Concentration” value was determined as 4 µg/mL (EPI Conc. 0 μg/mL); 4 µg/mL (EPI Conc. 0.625 μg/mL); 4 µg/mL (EPI Conc. 1.25 μg/mL); 4 µg/mL (EPI Conc. 2.5 μg/mL); 4 µg/mL (EPI Conc. 5 μg/ mL); 0.50 µg/mL (EPI Conc. 10 μg/mL). The “Levofloxacin MIC Against P. aerugiuosa PAM1001 in Presence of Efflux Pump Inhibitor (EPI), Minimum Inhibitory Concentration” value is, setting by setting: (EPI Conc. 20 μg/mL) 0.06 µg/mL; (EPI Conc. 40 μg/mL) 0.06 µg/mL.

As to `NCC(=O)N[C@@H]1CN[C@@H](C(=O)N[C@H](CCc2ccccc2)C(=O)NCCCc2ccccc2)C1` [Compound M2], the “Levofloxacin MIC Against P. aerugiuosa PAM1001 in Presence of Efflux Pump Inhibitor (EPI), Minimum Inhibitory Concentration” value runs as follows: (EPI Conc. 0 μg/mL) 4 µg/mL; (EPI Conc. 0.625 μg/mL) 4 µg/mL; (EPI Conc. 1.25 μg/mL) 4 µg/mL; (EPI Conc. 2.5 μg/mL) 4 µg/mL; (EPI Conc. 5 μg/ mL) 2 µg/mL; (EPI Conc. 10 μg/mL) 2 µg/mL. Besides, the “Levofloxacin MIC Against P. aerugiuosa PAM1001 in Presence of Efflux Pump Inhibitor (EPI), Minimum Inhibitory Concentration” value (EPI Conc. 20 μg/mL) was found to be 0.25 µg/mL and the “Levofloxacin MIC Against P. aerugiuosa PAM1001 in Presence of Efflux Pump Inhibitor (EPI), Minimum Inhibitory Concentration” value (EPI Conc. 40 μg/mL) is 0.125 µg/mL.

Consider “(2S,4R)-4-(Aminompropionamido)-N-[(1R)-3-phenyl-1-(3-quinolylcarbamolyl)propyl]-2-pyrrolidinecarboxamide [Compound M5]”, for which the “Levofloxacin MIC Against P. aerugiuosa PAM1001 in Presence of Efflux Pump Inhibitor (EPI), Minimum Inhibitory Concentration” value (EPI Conc. 0 μg/mL) turned out to be 4 µg/mL; the “Levofloxacin MIC Against P. aerugiuosa PAM1001 in Presence of Efflux Pump Inhibitor (EPI), Minimum Inhibitory Concentration” value (EPI Conc. 0.625 μg/mL) turned out to be 4 µg/mL; the “Levofloxacin MIC Against P. aerugiuosa PAM1001 in Presence of Efflux Pump Inhibitor (EPI), Minimum Inhibitory Concentration” value (EPI Conc. 1.25 μg/mL) is 4 µg/mL; the “Levofloxacin MIC Against P. aerugiuosa PAM1001 in Presence of Efflux Pump Inhibitor (EPI), Minimum Inhibitory Concentration” value (EPI Conc. 2.5 μg/mL) was 4 µg/mL; the “Levofloxacin MIC Against P. aerugiuosa PAM1001 in Presence of Efflux Pump Inhibitor (EPI), Minimum Inhibitory Concentration” value (EPI Conc. 5 μg/ mL) was 2 µg/mL; the “Levofloxacin MIC Against P. aerugiuosa PAM1001 in Presence of Efflux Pump Inhibitor (EPI), Minimum Inhibitory Concentration” value (EPI Conc. 10 μg/mL) is 2 µg/mL. Further, the “Levofloxacin MIC Against P. aerugiuosa PAM1001 in Presence of Efflux Pump Inhibitor (EPI), Minimum Inhibitory Concentration” value was 0.50 µg/mL (EPI Conc. 20 μg/mL) and 0.008 µg/mL (EPI Conc. 40 μg/mL).

On to `CN(C(=O)[C@@H]1C[C@@H](NC(=O)CN)CN1)[C@H](CCc1ccccc1)C(=O)Nc1cnc2ccccc2c1` [Compound M15, (2S,4R)-4-(2-Aminoacetamido)-N-methyl-N-[(1R)-3-phenyl-1-(3-quinolylcarbamoyl)propyl]-2-pyrrolidiecarboxamide], for which the “Levofloxacin MIC Against P. aerugiuosa PAM1001 in Presence of Efflux Pump Inhibitor (EPI), Minimum Inhibitory Concentration” value is 4 µg/mL (EPI Conc. 0 μg/mL); 4 µg/mL (EPI Conc. 0.625 μg/mL); 4 µg/mL (EPI Conc. 1.25 μg/mL); 4 µg/mL (EPI Conc. 2.5 μg/mL); 4 µg/mL (EPI Conc. 5 μg/ mL); 1 µg/mL (EPI Conc. 10 μg/mL). In addition, the “Levofloxacin MIC Against P. aerugiuosa PAM1001 in Presence of Efflux Pump Inhibitor (EPI), Minimum Inhibitory Concentration” value stood at 0.06 µg/mL (EPI Conc. 20 μg/mL) and 0.015 µg/mL (EPI Conc. 40 μg/mL).

Turning to `NCC(=O)N[C@H]1CN[C@H](C(=O)NCc2nc3cc(Cc4ccccc4)ccc3[nH]2)C1` [Compound M79, (2S,4R)-4-(2-Aminoacetamido)-N-[(5-benzyl-2-benzimidazolyl)methyl]-2-pyrrolidinexarboxamide], the “Levofloxacin MIC Against P. aerugiuosa PAM1001 in Presence of Efflux Pump Inhibitor (EPI), Minimum Inhibitory Concentration” value was 4 µg/mL (EPI Conc. 0 μg/mL); 4 µg/mL (EPI Conc. 0.625 μg/mL); 4 µg/mL (EPI Conc. 1.25 μg/mL); 4 µg/mL (EPI Conc. 2.5 μg/mL); 4 µg/mL (EPI Conc. 5 μg/ mL); 2 µg/mL (EPI Conc. 10 μg/mL). Further, the “Levofloxacin MIC Against P. aerugiuosa PAM1001 in Presence of Efflux Pump Inhibitor (EPI), Minimum Inhibitory Concentration” value is, setting by setting: (EPI Conc. 20 μg/mL) 1 µg/mL; (EPI Conc. 40 μg/mL) 0.125 µg/mL.

Take `NCC(=O)N[C@H]1CN[C@H](C(=O)N[C@H](CCc2ccccc2)CSc2ccc3ccccc3n2)C1` [Compound M55, (2S,4R)-4-(2-Aminoacetamido)-N-[(1R)-3-phenyl-1-[(2-quinolythio)methyl]propyl]-2-pyrrolidinecarobxamide]: the “Levofloxacin MIC Against P. aerugiuosa PAM1001 in Presence of Efflux Pump Inhibitor (EPI), Minimum Inhibitory Concentration” value stood at 4 µg/mL (EPI Conc. 0 μg/mL); 4 µg/mL (EPI Conc. 0.625 μg/mL); 4 µg/mL (EPI Conc. 1.25 μg/mL); 4 µg/mL (EPI Conc. 2.5 μg/mL); 4 µg/mL (EPI Conc. 5 μg/ mL); 2 µg/mL (EPI Conc. 10 μg/mL). In addition, the “Levofloxacin MIC Against P. aerugiuosa PAM1001 in Presence of Efflux Pump Inhibitor (EPI), Minimum Inhibitory Concentration” value was found to be 1 µg/mL (EPI Conc. 20 μg/mL) and 0.06 µg/mL (EPI Conc. 40 μg/mL).
